Measurements taken from PMC6685790 (Nature structural & molecular biology, 2008).
Numbering of substitutions follows the chain as printed. Where two headings read alike, the source gives them in different places.

Legend:
GlyR α1^F108A = target: T1, GlyR α1^F108A (Homo sapiens, UniProt P23415, F136A); type: cell-based
T1 sequence (P23415 29-457 F136A): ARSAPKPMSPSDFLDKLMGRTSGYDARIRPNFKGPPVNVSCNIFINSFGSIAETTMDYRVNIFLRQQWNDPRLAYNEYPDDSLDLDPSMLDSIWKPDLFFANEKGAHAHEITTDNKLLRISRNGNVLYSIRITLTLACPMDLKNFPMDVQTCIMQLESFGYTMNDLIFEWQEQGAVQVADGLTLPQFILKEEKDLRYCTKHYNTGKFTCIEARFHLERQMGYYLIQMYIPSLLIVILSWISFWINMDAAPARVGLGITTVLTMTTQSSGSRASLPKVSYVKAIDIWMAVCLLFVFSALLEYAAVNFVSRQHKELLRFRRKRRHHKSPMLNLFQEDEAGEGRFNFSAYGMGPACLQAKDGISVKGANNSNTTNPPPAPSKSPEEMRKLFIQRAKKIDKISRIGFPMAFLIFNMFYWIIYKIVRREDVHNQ

[1] = test system: Zn^2+-activated GlyRs (ZAGs); type: cell-based, human
GlyR α1^F99A = target: T2, GlyR α1^F99A (Homo sapiens, UniProt P23415, F127A); experiment: Whole-cell recording of substituted GlyR in HEK cells; type: cell-based
T2 sequence (P23415 29-457 F127A): T1 sequence (P23415 29-457 F136A) with F99A, A108F

GlyR α1^L98A = target: T3, GlyR α1^L98A (Homo sapiens, UniProt P23415, L126A); experiment: as above; type: cell-based
T3 sequence (P23415 29-457 L126A): T1 sequence (P23415 29-457 F136A) with L98A, A108F

GlyR α1^L134A = target: T4, GlyR α1^L134A (Homo sapiens, UniProt P23415, L162A); experiment: as above; type: cell-based
T4 sequence (P23415 29-457 L162A): T1 sequence (P23415 29-457 F136A) with A108F, L134A

[2] = read-out: Zn^2+ complexation KD; ref [52]; cited from earlier work

Molecule: N#C[B-](c1ccccc1)(c1ccccc1)c1ccccc1 [CTB, cyanotriphenylborate]
- Effect on Zn^2+-activated currents (GlyR α1^F108A): abolished
- Standing current remaining after block of spontaneous leak ([1]; CTB 20 μM, considered full abolition of receptor-mediated leak): less than 50 pA

Molecule: c1ccc(CN(CCN(Cc2ccccn2)Cc2ccccn2)Cc2ccccn2)nc1 [TPEN, N,N,N’,N’-tetrakis-(2-pyridylmethyl)-ethylenediamine]
- Effect on leak current (component caused by Zn^2+ contamination) ([1]; TPEN 100 μM, α1^L98A, α1^F99A, α1^F108A, α1^L134A): reduced

Molecule: O=C1C[C@@H]2OCC=C3CN4CC[C@]56c7ccccc7N1[C@H]5[C@H]2[C@H]3C[C@H]46 [strychnine]
- Attenuation of leak current (GlyR α1^F99A): 100%
- Effect on Zn^2+ activation (GlyR α1^L98A): inhibited
- Attenuation of leak current (GlyR α1^L134A): 90 ± 4%
- Loss of potency inhibiting leak current compared to glycine-activated currents [1]: 10 fold

Molecule: O=C(O)CNC(CO)(CO)CO [tricine]
- Kd [2]: 10 µM

Molecule: picrotoxin
- Effect on Zn^2+ activation (GlyR α1^L98A; picrotoxin, α1^L98A, Zn^2+ EC50-activated currents (Fig. 2f)): inhibited
